Publication PMC5218480 (PLoS ONE, 2017)

Test system: MV-4-11 cells
Assay: Gene expression microarray analysis (Affymetrix PrimeView) and GSEA
Format: cell-based, human
Parameters: RFU PODN (11730768_x_at) / Fold change /veh PODN (11730768_x_at) / RFU LINC00158 (11744669_a_at) / Fold change /veh LINC00158 (11744669_a_at) / RFU DUSP10 (11751237_a_at) / Fold change /veh DUSP10 (11751237_a_at) / RFU ID3 (11757404_x_at) / Fold change /veh ID3 (11757404_x_at) / RFU PLEKHG5 (11737974_s_at) / Fold change /veh PLEKHG5 (11737974_s_at) / RFU LRRC4B (11730491_at) / Fold change /veh LRRC4B (11730491_at) / RFU GIMAP4 (11747438_a_at) / Fold change /veh GIMAP4 (11747438_a_at) / RFU KRT8 (11758183_x_at) / Fold change /veh KRT8 (11758183_x_at) / RFU CNN1 (11734310_a_at) / Fold change /veh CNN1 (11734310_a_at) / RFU VPS37D (11726825_at) / Fold change /veh VPS37D (11726825_at) / RFU C10orf10 (11716522_x_at) / Fold change /veh C10orf10 (11716522_x_at) / RFU KIR2DL2 /// KIR2DL4 /// KIR2DL5A /// KIR2DL5B /// KIR2DS1 /// KIR2DS2 /// KIR2DS3 /// KIR2DS4 /// KIR3DL3 /// KIR3DL3 /// KIR3DS1 (11738374_at) / Fold change /veh KIR2DL2 /// KIR2DL4 /// KIR2DL5A /// KIR2DL5B /// KIR2DS1 /// KIR2DS2 /// KIR2DS3 /// KIR2DS4 /// KIR3DL3 /// KIR3DL3 /// KIR3DS1 (11738374_at) / RFU C1QL1 (11718748_at) / Fold change /veh C1QL1 (11718748_at) / RFU TMPRSS4 (11747572_a_at) / Fold change /veh TMPRSS4 (11747572_a_at) / RFU HAMP (11756126_x_at) / Fold change /veh HAMP (11756126_x_at) / RFU RNFT2 (11725882_a_at) / Fold change /veh RNFT2 (11725882_a_at) / RFU NR4A2 (11747474_a_at) / Fold change /veh NR4A2 (11747474_a_at) / RFU ABCC12 (11746883_a_at) / Fold change /veh ABCC12 (11746883_a_at) / RFU TMEM136 (11760407_x_at) / Fold change /veh TMEM136 (11760407_x_at) / RFU CLDN22 /// WWC2 (11732394_at) / Fold change /veh CLDN22 /// WWC2 (11732394_at) / RFU HLA-DPB1 (11760878_x_at) / Fold change /veh HLA-DPB1 (11760878_x_at) / RFU SPINT1 (11716480_a_at) / Fold change /veh SPINT1 (11716480_a_at) / RFU GAP43 (11754022_s_at) / Fold change /veh GAP43 (11754022_s_at) / RFU A4GNT (11735810_at) / Fold change /veh A4GNT (11735810_at) / RFU PRB3 (11715151_x_at) / Fold change /veh PRB3 (11715151_x_at) / RFU TUBB4B (11761932_at) / Fold change /veh TUBB4B (11761932_at) / RFU CAPN14 (11732068_a_at) / Fold change /veh CAPN14 (11732068_a_at) / RFU TMCC2 (11721928_a_at) / Fold change /veh TMCC2 (11721928_a_at) / RFU IRGQ (11745062_a_at) / Fold change /veh IRGQ (11745062_a_at) / RFU FAM174B (11720279_a_at) / Fold change /veh FAM174B (11720279_a_at) / RFU TMPRSS4 (11748680_a_at) / Fold change /veh TMPRSS4 (11748680_a_at) / RFU FAM212B (11763350_a_at) / Fold change /veh FAM212B (11763350_a_at) / RFU PLEKHG5 (11743358_a_at) / Fold change /veh PLEKHG5 (11743358_a_at) / RFU ZSCAN30 (11745921_a_at) / Fold change /veh ZSCAN30 (11745921_a_at) / RFU CMKLR1 (11741424_a_at) / Fold change /veh CMKLR1 (11741424_a_at) / RFU LOC101060620 /// MAPK8IP1 (11723275_at) / Fold change /veh LOC101060620 /// MAPK8IP1 (11723275_at) / RFU SPTSSB (11747773_x_at) / Fold change /veh SPTSSB (11747773_x_at) / RFU PRSS12 (11739890_at) / Fold change /veh PRSS12 (11739890_at) / RFU BIN1 (11741810_x_at) / Fold change /veh BIN1 (11741810_x_at) / RFU WNT11 (11732464_a_at) / Fold change /veh WNT11 (11732464_a_at) / RFU C10orf10 (11716521_a_at) / Fold change /veh C10orf10 (11716521_a_at) / RFU C5orf56 (11738089_at) / Fold change /veh C5orf56 (11738089_at) / RFU CYB561 (11721691_x_at) / Fold change /veh CYB561 (11721691_x_at) / RFU ANKRD19P (11752326_a_at) / Fold change /veh ANKRD19P (11752326_a_at) / RFU OR2T12 /// OR2T33 /// OR2T8 (11738714_s_at) / Fold change /veh OR2T12 /// OR2T33 /// OR2T8 (11738714_s_at) / RFU VCAN (11748164_a_at) / Fold change /veh VCAN (11748164_a_at) / RFU JSRP1 (11732532_at) / Fold change /veh JSRP1 (11732532_at) / RFU KRTAP10-11 (11738290_x_at) / Fold change /veh KRTAP10-11 (11738290_x_at) / RFU MYO3A (11730013_a_at) / Fold change /veh MYO3A (11730013_a_at) / RFU EBF3 (11725865_a_at) / Fold change /veh EBF3 (11725865_a_at) / RFU CAMK2N1 (11719241_x_at) / Fold change /veh CAMK2N1 (11719241_x_at) / RFU C5orf56 (11738088_a_at) / Fold change /veh C5orf56 (11738088_a_at) / RFU OLFML3 (11715873_a_at) / Fold change /veh OLFML3 (11715873_a_at) / RFU LOC100653217 /// NTM (11731650_a_at) / Fold change /veh LOC100653217 /// NTM (11731650_a_at) / RFU MAPK11 (11762145_a_at) / Fold change /veh MAPK11 (11762145_a_at) / RFU FIZ1 (11724087_x_at) / Fold change /veh FIZ1 (11724087_x_at) / RFU OASL (11726364_x_at) / Fold change /veh OASL (11726364_x_at) / RFU SOX15 (11748057_x_at) / Fold change /veh SOX15 (11748057_x_at) / RFU CD79A (11719716_a_at) / Fold change /veh CD79A (11719716_a_at) / RFU HIST1H1D (11736915_at) / Fold change /veh HIST1H1D (11736915_at) / RFU CASKIN2 (11723855_a_at) / Fold change /veh CASKIN2 (11723855_a_at) / RFU LOC730098 (11760151_x_at) / Fold change /veh LOC730098 (11760151_x_at) / RFU OR4N2 (11742367_at) / Fold change /veh OR4N2 (11742367_at) / RFU PRRT2 (11749266_a_at) / Fold change /veh PRRT2 (11749266_a_at) / RFU SNX32 (11753110_a_at) / Fold change /veh SNX32 (11753110_a_at) / RFU CDHR5 (11726645_a_at) / Fold change /veh CDHR5 (11726645_a_at) / RFU RCAN1 (11760418_a_at) / Fold change /veh RCAN1 (11760418_a_at) / RFU FAM167A (11723789_a_at) / Fold change /veh FAM167A (11723789_a_at) / RFU FAM26E (11764081_at) / Fold change /veh FAM26E (11764081_at) / RFU ISYNA1 (11749810_s_at) / Fold change /veh ISYNA1 (11749810_s_at) / RFU ACY1 (11761880_at) / Fold change /veh ACY1 (11761880_at) / RFU 11764098_at / Fold change /veh 11764098_at / RFU SAMD14 (11745864_x_at) / Fold change /veh SAMD14 (11745864_x_at) / RFU NPB (11741838_a_at) / Fold change /veh NPB (11741838_a_at) / RFU TMPRSS6 (11731388_a_at) / Fold change /veh TMPRSS6 (11731388_a_at) / RFU KRTAP10-2 (11738614_at) / Fold change /veh KRTAP10-2 (11738614_at) / RFU ARHGAP8 /// PRR5-ARHGAP8 (11727945_x_at) / Fold change /veh ARHGAP8 /// PRR5-ARHGAP8 (11727945_x_at) / RFU KRTAP5-7 /// NADSYN1 (11734609_at) / Fold change /veh KRTAP5-7 /// NADSYN1 (11734609_at) / RFU RASL12 (11751679_a_at) / Fold change /veh RASL12 (11751679_a_at) / RFU CDKN2B (11736163_a_at) / Fold change /veh CDKN2B (11736163_a_at) / RFU PRF1 (11729649_at) / Fold change /veh PRF1 (11729649_at) / RFU, ZNF638 /// ZNF638-IT1 / Fold change vs veh, ZNF638 /// ZNF638-IT1 / RFU, PANK3 / Fold change vs veh, PANK3 / RFU, SH3YL1 / Fold change vs veh, SH3YL1 / RFU, ZEB2 / Fold change vs veh, ZEB2 / RFU, NRIP1 / Fold change vs veh, NRIP1 / RFU, PTTG1IP / Fold change vs veh, PTTG1IP / RFU, CAPN2 / Fold change vs veh, CAPN2 / RFU, MED14 / Fold change vs veh, MED14 / RFU, SNORA58 / Fold change vs veh, SNORA58 / RFU, C1orf63 / Fold change vs veh, C1orf63 / RFU, LRRFIP1 / Fold change vs veh, LRRFIP1 / RFU, NDUFAF7 / Fold change vs veh, NDUFAF7 / RFU, SLC12A2 / Fold change vs veh, SLC12A2 / RFU, IBTK / Fold change vs veh, IBTK / RFU, ESF1 / Fold change vs veh, ESF1 / Fold change vs veh, TMEM50B / RFU, TAOK1 / Fold change vs veh, TAOK1 / RFU, ACBD3 / Fold change vs veh, ACBD3 / RFU, TMA16 / Fold change vs veh, TMA16 / RFU, RWDD3 / Fold change vs veh, RWDD3 / RFU, BCAT1 / Fold change vs veh, BCAT1 / RFU, EDEM3 / Fold change vs veh, EDEM3 / RFU, TMEM33 / Fold change vs veh, TMEM33 / RFU, WDR75 / Fold change vs veh, WDR75 / RFU, AHCTF1 / Fold change vs veh, AHCTF1 / RFU, TFRC / Fold change vs veh, TFRC / RFU, ZDHHC17 / Fold change vs veh, ZDHHC17 / RFU, NOM1 / Fold change vs veh, NOM1 / RFU, ARL8B / Fold change vs veh, ARL8B / RFU, ZBTB11 / Fold change vs veh, ZBTB11 / RFU, TAMM41 / Fold change vs veh, TAMM41 / RFU, KIAA1704 /// LOC100996395 / Fold change vs veh, KIAA1704 /// LOC100996395 / RFU, ING1 / Fold change vs veh, ING1 / RFU, TRMT61B / Fold change vs veh, TRMT61B / RFU, FUBP3 / Fold change vs veh, FUBP3 / RFU, TP53 / Fold change vs veh, TP53 / RFU, TNKS2 / Fold change vs veh, TNKS2 / RFU, ZFP14 / Fold change vs veh, ZFP14 / RFU, ACTR2 / Fold change vs veh, ACTR2 / RFU, PPP3R1 / Fold change vs veh, PPP3R1 / RFU, PIK3R1 / Fold change vs veh, PIK3R1 / RFU, HNRNPA1 / Fold change vs veh, HNRNPA1 / RFU, RNF170 / Fold change vs veh, RNF170 / RFU, ZNF28 / Fold change vs veh, ZNF28 / RFU, RNGTT / Fold change vs veh, RNGTT / RFU, OGT / Fold change vs veh, OGT / RFU, BRD1 / Fold change vs veh, BRD1 / RFU, MARS / Fold change vs veh, MARS / RFU, ZNF655 / Fold change vs veh, ZNF655 / RFU, FAHD1 / Fold change vs veh, FAHD1 / RFU, BDP1 / Fold change vs veh, BDP1 / RFU, LRRCC1 / Fold change vs veh, LRRCC1 / RFU, ARID1A / Fold change vs veh, ARID1A / RFU, ZNF146 / Fold change vs veh, ZNF146 / RFU, ZNF330 / Fold change vs veh, ZNF330 / RFU, GPN3 / Fold change vs veh, GPN3 / RFU, C9orf123 / Fold change vs veh, C9orf123 / RFU, N4BP2L2 / Fold change vs veh, N4BP2L2 / RFU, ARFIP1 / Fold change vs veh, ARFIP1 / RFU, FAM179B / Fold change vs veh, FAM179B / RFU, BCL10 / Fold change vs veh, BCL10 / RFU, UHRF1BP1L / Fold change vs veh, UHRF1BP1L / RFU, BET1 / Fold change vs veh, BET1 / RFU, CNOT2 / Fold change vs veh, CNOT2 / RFU, ZNF268 / Fold change vs veh, ZNF268 / Fold change vs veh, ZNF507 / RFU, DGCR2 / Fold change vs veh, DGCR2 / RFU, WDSUB1 / Fold change vs veh, WDSUB1 / Fold change vs veh, HSP90B1 /// MIR3652 / RFU, ADSS / Fold change vs veh, ADSS / RFU, GK / Fold change vs veh, GK / RFU, ZNF148 / Fold change vs veh, ZNF148 / RFU, TAF9 / Fold change vs veh, TAF9 / RFU, SLC1A5 / Fold change vs veh, SLC1A5 / RFU, SLMO2 / Fold change vs veh, SLMO2 / RFU, ABCC4 / Fold change vs veh, ABCC4 / RFU, LOC101060439 /// RAP1B / Fold change vs veh, LOC101060439 /// RAP1B / RFU, RFX7 / Fold change vs veh, RFX7 / RFU, GTPBP10 / Fold change vs veh, GTPBP10 / RFU, CNEP1R1 / Fold change vs veh, CNEP1R1 / RFU, BIVM-ERCC5 /// ERCC5 / Fold change vs veh, BIVM-ERCC5 /// ERCC5 / RFU, ILF3 / Fold change vs veh, ILF3 / RFU 11762660_at / Fold change /veh 11762660_at / RFU VCAN (11757783_s_at) / Fold change /veh VCAN (11757783_s_at) / RFU DDX43 (11728927_at) / Fold change /veh DDX43 (11728927_at) / RFU KRT8 (11758188_x_at) / Fold change /veh KRT8 (11758188_x_at) / RFU NKD1 (11759106_at) / Fold change /veh NKD1 (11759106_at) / RFU SRD5A1 (11742802_a_at) / Fold change /veh SRD5A1 (11742802_a_at) / RFU TPSAB1 /// TPSB2 (11721975_s_at) / Fold change /veh TPSAB1 /// TPSB2 (11721975_s_at) / RFU GSTM3 (11746129_a_at) / Fold change /veh GSTM3 (11746129_a_at) / RFU IL23R (11737362_x_at) / Fold change /veh IL23R (11737362_x_at) / RFU TMEM51 (11727254_a_at) / Fold change /veh TMEM51 (11727254_a_at) / RFU PIWIL2 (11732686_x_at) / Fold change /veh PIWIL2 (11732686_x_at) / RFU ORM1 (11744905_x_at) / Fold change /veh ORM1 (11744905_x_at) / RFU CCDC152 (11743942_at) / Fold change /veh CCDC152 (11743942_at) / RFU ECM1 (11717891_a_at) / Fold change /veh ECM1 (11717891_a_at) / RFU IL23R (11748794_a_at) / Fold change /veh IL23R (11748794_a_at) / RFU TNFAIP8L3 (11732012_x_at) / Fold change /veh TNFAIP8L3 (11732012_x_at) / RFU MBOAT4 (11741988_at) / Fold change /veh MBOAT4 (11741988_at) / RFU 11764193_at / Fold change /veh 11764193_at / RFU TMEM53 (11763286_at) / Fold change /veh TMEM53 (11763286_at) / RFU MAGEB2 (11727129_at) / Fold change /veh MAGEB2 (11727129_at) / RFU TMEM200A (11744735_a_at) / Fold change /veh TMEM200A (11744735_a_at) / RFU CCDC152 (11751479_a_at) / Fold change /veh CCDC152 (11751479_a_at) / RFU FAM211A (11726209_a_at) / Fold change /veh FAM211A (11726209_a_at) / RFU RGS16 (11746705_a_at) / Fold change /veh RGS16 (11746705_a_at) / RFU VCAN (11755009_s_at) / Fold change /veh VCAN (11755009_s_at) / RFU RHOB (11743442_s_at) / Fold change /veh RHOB (11743442_s_at) / RFU RGS16 (11720943_a_at) / Fold change /veh RGS16 (11720943_a_at) / RFU RGS16 (11720944_at) / Fold change /veh RGS16 (11720944_at) / RFU, VPS4B / Fold change vs veh, VPS4B / RFU, CREB1 / Fold change vs veh, CREB1 / RFU, DNAJC13 / Fold change vs veh, DNAJC13 / RFU, GNAQ / Fold change vs veh, GNAQ / RFU, CDK5R1 / Fold change vs veh, CDK5R1 / RFU, ZRANB3 / Fold change vs veh, ZRANB3 / RFU, CUL4A / Fold change vs veh, CUL4A / RFU, CCNY / Fold change vs veh, CCNY / RFU, UFL1 / Fold change vs veh, UFL1 / RFU, COG3 / Fold change vs veh, COG3 / RFU, DIAPH2 / Fold change vs veh, DIAPH2 / RFU, SKA2 / Fold change vs veh, SKA2 / RFU, AFF3 / Fold change vs veh, AFF3 / RFU, LMF1 / Fold change vs veh, LMF1 / RFU, IPO11 / Fold change vs veh, IPO11 / RFU, DFFB / Fold change vs veh, DFFB / RFU, FOXP1 / Fold change vs veh, FOXP1 / RFU, CARD8 / Fold change vs veh, CARD8 / RFU, STRN3 / Fold change vs veh, STRN3 / RFU, ADK / Fold change vs veh, ADK / RFU, RASSF2 / Fold change vs veh, RASSF2 / RFU, WIPF1 / Fold change vs veh, WIPF1 / RFU, LARP1B / Fold change vs veh, LARP1B / RFU, RASA1 / Fold change vs veh, RASA1 / RFU, RB1 / Fold change vs veh, RB1 / RFU, PPFIA1 / Fold change vs veh, PPFIA1 / RFU, MAT2A / Fold change vs veh, MAT2A / RFU, CCT5 / Fold change vs veh, CCT5 / RFU, WDR92 / Fold change vs veh, WDR92 / RFU, CUX1 / Fold change vs veh, CUX1 / RFU, TTC7A / Fold change vs veh, TTC7A / RFU, TMEM135 / Fold change vs veh, TMEM135 / RFU, DEPTOR / Fold change vs veh, DEPTOR / RFU, CPM / Fold change vs veh, CPM / RFU, DNAJB6 / Fold change vs veh, DNAJB6 / RFU, CACNA2D3 / Fold change vs veh, CACNA2D3 / RFU, DTX4 / Fold change vs veh, DTX4 / RFU, TFCP2 / Fold change vs veh, TFCP2 / RFU, GMCL1 /// GMCL1P1 / Fold change vs veh, GMCL1 /// GMCL1P1 / RFU, AEBP2 / Fold change vs veh, AEBP2 / RFU, SNHG1 /// SNORD22 /// SNORD25 /// SNORD26 /// SNORD27 /// SNORD28 /// SNORD29 /// SNORD31 / Fold change vs veh, SNHG1 /// SNORD22 /// SNORD25 /// SNORD26 /// SNORD27 /// SNORD28 /// SNORD29 /// SNORD31 / Fold change (Aza/veh), C12orf56 (ProbeSet 11735607_a_at) / Fold change (ACY-1035/veh), C12orf56 (ProbeSet 11735607_a_at) / Fold change (Aza/veh), FGFR1OP (ProbeSet 11751329_s_at) / Fold change (ACY-1035/veh), FGFR1OP (ProbeSet 11751329_s_at) / Fold change (Aza/veh), VPS36 (ProbeSet 11739960_a_at) / Fold change (ACY-1035/veh), VPS36 (ProbeSet 11739960_a_at) / RFU SYPL1 (11715823_x_at) / Fold change /veh SYPL1 (11715823_x_at) / RFU IGFBP7 (11715501_s_at) / Fold change /veh IGFBP7 (11715501_s_at) / RFU REEP3 (11722064_at) / Fold change /veh REEP3 (11722064_at) / RFU IGLL1 (11728026_x_at) / Fold change /veh IGLL1 (11728026_x_at): dose or concentration left out as unconfirmed
Conditions: ProbeSet 11726703_a_at; LIST B

## Nc1ncn([C@@H]2O[C@H](CO)[C@@H](O)[C@H]2O)c(=O)n1 [azacitidine]
  RFU, BCL10: 71.45 RFU
